Assay [1] concerns A10. Briefly: Disruption of actin cytoskeleton in rat A10 cells assessed as generation of binucleated cells at 70 nM after 24 hrs by TRITC-phalloidin assay. The class given is functional, cell-based.
A further assay has as its system HCT-116. As to the kind of experiment: Cytotoxicity against human HCT116 cells after 72 hrs by MTS reduction assay. Conditions: HCT-116, 72 h. The class given is functional, cell-based.
Assay [2] concerns Candida albicans. As to the kind of experiment: Antifungal activity against wild-type Candida albicans. The class given is functional.
Assay [3] has as its system Candida albicans. As to the kind of experiment: Antifungal activity against amphotericin B-resistant Candida albicans. It counts as functional.
Assay [4] has as its system A10. As to the kind of experiment: Disruption of actin cytoskeleton in rat A10 cells assessed as generation of binucleated cells at 7.3 nM after 24 hrs by TRITC-phalloidin assay. It counts as functional, cell-based.

In ChEMBL document CHEMBL1157239, “Hurghadolide A and swinholide I, potent actin-microfilament disrupters from the Red Sea sponge Theonella swinhoei” (J Nat Prod, 2006) one finds Activity, IC50 and MIC data, which are given here for four compounds.

In brackets after ≈: the same amount, converted by molar mass. Several values for one entry are separate records, joined by “and”; a condition that tells them apart may be missing. Identical values can stand only once. Activity calls are given as the source filed them. No cut-off for these calls is given here.

By IC50 is commonly meant the midpoint of a concentration-inhibition curve. The low end stands for higher potency, the high end for lower potency. One may read the MIC as the lowest concentration found to suppress growth. Read a high MIC as weaker potency.

As to `CO[C@@H]1C[C@H](C)O[C@@H](C(O)C[C@H](C)[C@H](O)[C@H](C)[C@H]2OC(=O)/C=C/C(C)=C/C[C@H](O)C[C@@H]3C=CC[C@@H](C[C@H](OC)[C@@H](C)[C@@H](O)C[C@@H](O)[C@H](C)[C@@H]([C@@H](C)[C@@H](O)[C@@H](C)CC[C@H]4C[C@H](OC)C[C@H](C)O4)OC(=O)/C=C/C(C)=C/C[C@H](O)C[C@@H]4C=CC[C@@H](C[C@H](OC)[C@@H](C)[C@@H](O)C[C@@H](O)[C@@H]2C)O4)O3)C1` (some centres undefined) [Swinholide I], in the assay with A10 [1], the result was Active. Moreover, the 50% inhibitory concentration (IC50) in the assay with HCT-116 is 5.6 nM and 0.008 µg/mL. The minimum inhibitory concentration (MIC) stood at 62.2 µg/mL (≈ 44.2 µM) against Candida albicans [2] and 500 µg/mL (≈ 356 µM) in the assay with Candida albicans [3].

On to `CO[C@H]1C[C@H](CC[C@H](C)[C@H](O)[C@H](C)[C@H]2OC(=O)/C=C/C(C)=C/C[C@H](O)C[C@@H]3C=CC[C@@H](C[C@H](OC)[C@@H](C)[C@@H](O)C[C@@H](O)[C@H](C)[C@@H]([C@@H](C)[C@@H](O)[C@@H](C)CC[C@H]4C[C@H](OC)C[C@H](C)O4)OC(=O)/C(C)=C/C[C@H](O)C[C@@H]4C=CC[C@@H](C[C@H](OC)[C@@H](C)[C@@H](O)C[C@@H](O)[C@@H]2C)O4)O3)O[C@@H](C)C1` [HURGHADOLIDE A], for which the concentration for half-maximal inhibition (IC50) in the assay on HCT-116 was 365 nM and 0.5 µg/mL. For the same compound, the MIC against Candida albicans [2] and in the assay on Candida albicans [3] was 31.3 µg/mL (≈ 22.9 µM) throughout.

`C[C@@H]1[C@H](O)[C@@H](C)/C=C/C=C/C=C/C=C/C=C/C=C/C=C/[C@H](O[C@@H]2O[C@H](C)[C@@H](O)[C@H](N)[C@@H]2O)C[C@@H]2O[C@](O)(C[C@@H](O)C[C@@H](O)[C@H](O)CC[C@@H](O)C[C@@H](O)CC(=O)O[C@H]1C)C[C@H](O)[C@H]2C(=O)O` [AMPHOTERICIN B] came in with a minimal inhibitory concentration (MIC) against Candida albicans [2] of 1.56 µg/mL (≈ 1.69 µM).

Regarding `CO[C@H]1C[C@H](CC[C@H](C)[C@H](O)[C@H](C)[C@H]2OC(=O)/C=C/C(C)=C/C[C@H](O)C[C@@H]3C=CC[C@@H](C[C@H](OC)[C@@H](C)[C@@H](O)C[C@@H](O)[C@H](C)[C@@H]([C@@H](C)[C@@H](O)[C@@H](C)CC[C@H]4C[C@H](OC)C[C@H](C)O4)OC(=O)/C=C/C(C)=C/C[C@H](O)C[C@@H]4C=CC[C@@H](C[C@H](OC)[C@@H](C)[C@@H](O)C[C@@H](O)[C@@H]2C)O4)O3)O[C@@H](C)C1`, the outcome in the assay on A10 [4] was Active.
